Assay results taken from ChEMBL document CHEMBL2417393, “Structure guided optimization of a fragment hit to imidazopyridine inhibitors of PI3K” (Bioorg Med Chem Lett, 2013).
Values after ≈ are worked out from the molar mass of the structure shown. Values belong to the compound of their own block, whether it stands above or below them.

What was measured:
[1] = Half life in rat microsomes; format: ADME, Microsome
[2] = Clearance in rat microsomes; format: ADME, Microsome
[3] = Apparent permeability from basolateral to apical side in human Caco2 cells; format: ADME, cell-based; settings: Caco-2
[4] = Apparent permeability from apical to basolateral side in human Caco2 cells; format: ADME, cell-based; settings: Caco-2
[5] = Cmax in rat at 10 mg/kg, po; format: ADME, organism-based; set-up: dose 10 mg/kg, route oral; settings: in vivo
[6] = AUC in rat at 10 mg/kg, po; format: ADME, organism-based; set-up: dose 10 mg/kg, route oral; settings: plasma
[7] = Bioavailability in rat at 5 mg/kg, iv; format: ADME, organism-based; settings: in vivo
[8] = Half life in rat at 5 mg/kg, iv; format: ADME, organism-based; set-up: dose 5 mg/kg, route intravenous; settings: in vivo
[9] = Clearance in rat at 5 mg/kg, iv; format: ADME, organism-based; set-up: dose 5 mg/kg, route intravenous; settings: in vivo
[10] = Volume of distribution at steady state in rat at 5 mg/kg, iv; format: ADME, organism-based; set-up: dose 5 mg/kg, route intravenous; settings: in vivo, read-out: Vdss
[11] = Solubility of the compound in PBS buffer at pH 7.4; format: physicochemical
[12] = Lipophilicity, log D of the compound at pH 7.4; format: physicochemical; settings: buffer

Structure (SMILES): CC(=O)Nc1nc2ccc(-c3ccc(N)nc3)cc2s1
- half-life [1]: 3.12 h
- clearance [2]: 4 µL/min/mg
- Papp B→A [3]: 42 ×10⁻⁶ cm/s
- Papp A→B [4]: 46 ×10⁻⁶ cm/s
- Cmax [5]: 2500 nM
- AUC [6]: 16 µM·h
- bioavailability [7]: 57%
- half-life [8]: 2.5 h
- clearance [9]: 19 mL/min/kg
- Vd [10]: 3.6 L/kg
- solubility [11]: 4.2 µM (≈ 1.19 µg/mL)

Structure (SMILES): Nc1ncc(-c2ccc3nc(NC(=O)CCCN4CCOCC4)sc3c2)cc1C(F)(F)F
- solubility [11]: 8.3 µM (≈ 3.86 µg/mL)

Structure (SMILES): COc1cc(-c2ccc3nc(NC(C)=O)sc3c2)cnc1N
- Papp B→A [3]: 18 ×10⁻⁶ cm/s
- Papp A→B [4]: 6.7 ×10⁻⁶ cm/s

Structure (SMILES): CC(=O)Nc1nc2ccc(-c3cnc(N)c(C(F)(F)F)c3)cc2s1
- half-life [1]: 13 h
- clearance [2]: 8 µL/min/mg
- Papp B→A [3]: 13 ×10⁻⁶ cm/s
- Papp A→B [4]: 16 ×10⁻⁶ cm/s
- Cmax [5]: 2900 nM
- AUC [6]: 18 µM·h
- solubility [11]: 1.5 µM (≈ 0.529 µg/mL)

Structure (SMILES): COC(=O)c1ccc2nc(NC(C)=O)sc2c1
- logD [12]: 1.5

Structure (SMILES): Nc1ccc(-c2ccc3nc(NC(=O)CCCN4CCCCC4)sc3c2)cn1
- solubility [11]: 28 µM (≈ 11.1 µg/mL)

Structure (SMILES): CC(=O)Nc1cn2cc(-c3cnc(N)c(C(F)(F)F)c3)ncc2n1
- solubility [11]: 1 µM (≈ 0.336 µg/mL)

Structure (SMILES): Nc1ccc(-c2ccc3nc(NC(=O)CN4CCCCC4)sc3c2)cn1
- solubility [11]: 7.1 µM (≈ 2.61 µg/mL)

More lines, now with the values ahead:

- solubility [11]: 4.8 µM (≈ 1.61 µg/mL)
Structure (SMILES): CC(=O)Nc1cn2cc(-c3cnc(N)c(C(F)(F)F)c3)cnc2n1

- solubility [11]: 1.3 µM (≈ 0.437 µg/mL)
Structure (SMILES): CC(=O)Nc1nc2ccc(-c3cnc(N)c(C(F)(F)F)c3)cc2o1

- half-life [1]: 13 h
- clearance [2]: 8 µL/min/mg
- Papp B→A [3]: 40 ×10⁻⁶ cm/s
- Papp A→B [4]: 40 ×10⁻⁶ cm/s
- Cmax [5]: 15700 nM
- AUC [6]: 198 µM·h
- bioavailability [7]: 95%
- half-life [8]: 3 h
- clearance [9]: 2 mL/min/kg
- Vd [10]: 0.68 L/kg
Structure (SMILES): CC(=O)Nc1cn2cc(-c3cnc(N)c(C(F)(F)F)c3)ccc2n1

- solubility [11]: 25 µM (≈ 8.73 µg/mL)
Structure (SMILES): CC(=O)Nc1nc2ccc(-c3cnc(N)c(C(F)(F)F)c3)cc2n1C

- solubility [11]: 0.5 µM (≈ 0.174 µg/mL)
Structure (SMILES): CC(=O)Nc1ncc2cc(-c3cnc(N)c(C(F)(F)F)c3)ccc2n1

- solubility [11]: 56 µM (≈ 26 µg/mL)
Structure (SMILES): Nc1ncc(-c2ccc3nc(NC(=O)CCCN4CCCCC4)sc3c2)cc1C(F)(F)F
